Assay results as given in publication PMC3471877 (PLoS ONE, 2012).
Like-named read-outs stand apart in the source and are kept apart here. Square brackets hold non-standard residues; d marks the D form. Peptide text beside a SMILES is read from it.

Legend:
recombinant ETA receptor [1] = target: T1, recombinant ETA receptor (Homo sapiens, UniProt P25101); test: cell-based
[2] = target: T2, ET receptors in human primary PASMC (Homo sapiens, UniProt P25101); test: cell-based; details: ET-1 EC50–EC70
T2 sequence (P25101 21-427): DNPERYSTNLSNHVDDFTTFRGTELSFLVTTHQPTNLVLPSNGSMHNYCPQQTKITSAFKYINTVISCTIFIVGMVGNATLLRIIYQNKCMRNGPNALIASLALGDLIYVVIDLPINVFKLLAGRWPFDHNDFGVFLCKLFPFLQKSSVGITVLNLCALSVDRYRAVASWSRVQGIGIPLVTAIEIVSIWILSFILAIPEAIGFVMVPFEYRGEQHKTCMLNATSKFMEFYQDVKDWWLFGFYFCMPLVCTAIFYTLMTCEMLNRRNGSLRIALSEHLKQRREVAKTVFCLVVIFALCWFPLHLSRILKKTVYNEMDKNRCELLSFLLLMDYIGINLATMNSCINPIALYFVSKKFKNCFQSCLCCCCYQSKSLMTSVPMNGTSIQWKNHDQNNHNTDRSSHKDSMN

[3] = target: T2, ET receptors in human primary PASMC; details: for Kb: ET-1 EC50–EC70
recombinant ETB receptor [4] = target: T3, recombinant ETB receptor (Homo sapiens, UniProt P24530); details: read-out: Kb CHO-ETB; 120 min antagonist pre-incubation; ET-1 EC50–EC70; from IC50 via Cheng-Prusoff; geometric mean n = 3–8
T3 sequence (P24530 27-442): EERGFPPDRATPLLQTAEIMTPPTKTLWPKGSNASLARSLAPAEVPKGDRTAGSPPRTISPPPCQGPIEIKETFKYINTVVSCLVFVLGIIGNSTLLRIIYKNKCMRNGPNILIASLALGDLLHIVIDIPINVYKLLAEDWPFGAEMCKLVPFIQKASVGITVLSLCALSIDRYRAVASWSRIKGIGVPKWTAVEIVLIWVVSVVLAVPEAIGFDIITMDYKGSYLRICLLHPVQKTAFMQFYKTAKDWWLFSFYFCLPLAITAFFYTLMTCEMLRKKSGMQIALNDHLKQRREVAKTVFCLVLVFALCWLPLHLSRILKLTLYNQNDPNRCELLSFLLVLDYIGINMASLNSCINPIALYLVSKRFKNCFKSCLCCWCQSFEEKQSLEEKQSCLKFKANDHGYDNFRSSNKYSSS

recombinant ETA receptor [5] = target: T1, recombinant ETA receptor; details: read-out: Kb CHO-ETA; 120 min antagonist pre-incubation; ET-1 EC50–EC70; from IC50 via Cheng-Prusoff; geometric mean n = 3–8
[6] = target: T2, ET receptors in human primary PASMC
[7] = target: T2, ET receptors in human primary PASMC; remark: listed apart in the source
[8] = target: T2, ET receptors in human primary PASMC; test: cell-based; details: 120 min pre-incubation
[9] = target: T2, ET receptors in human primary PASMC; details: for proportion of receptors dissociated from within the first 30 seconds: estimated assuming 1:1 correlation between signal and receptor occupancy; for ROt1/2: estimated from first calcium response phase at 1 µM ET-1; for proportion of ET-1-induced signal with surmountable mode of antagonism: first calcium response phase, peak, 1 µM ET-1
[10] = target: T2, ET receptors in human primary PASMC; test: cell-based; details: 120 min pre-incubation; remark: listed apart in the source
P2Y12 = details: cited from earlier work
angiotensin II receptor = details: cited from earlier work
recombinant ETB receptor [11] = target: T3, recombinant ETB receptor; test: cell-based
[12] = Kb 10 min, 10 min antagonist pre-incubation, geometric mean n = 6
[13] = Kb PASMC, Table 1, 120 min antagonist pre-incubation, from IC50 via Cheng-Prusoff, geometric mean n = 3–8
[14] = Kb IP1 accumulation, 20 min ET-1 stimulation, IC50 at […] ET-1 via Cheng-Prusoff, n = 4
[15] = Schild Kb IP1 accumulation, 90 min ET-1 stimulation, Gaddum/Schild regression, n = 3
[16] = Kb 120 min, 120 min antagonist pre-incubation (steady state), geometric mean n = 6
[17] = Kb1 (first calcium response phase), peak fluorescence, IC50 at 8 nM ET-1 via Cheng-Prusoff
[18] = Kb2 (second sustained calcium response phase), AUC 3–23 min, IC50 at […] ET-1 via Cheng-Prusoff

T1 sequence (P25101 21-427): as the sequence (P25101 21-427) above

Work on `CC(C)C[C@@H]1NC(=O)[C@@H](C(C)C)NC(=O)[C@@H]2CCCN2C(=O)[C@@H](CC(=O)O)NC(=O)[C@@H](Cc2c[nH]c3ccccc23)NC1=O` [BQ-123] (cyclo(L[dW][dD]P[dV])) yielded a Kb (recombinant ETA receptor [1]) of 9.4 nM, a Kb [2, 12] of 0.61 nM and a Kb [2, 13] of 0.62 nM.
`CCCC[C@@H](NC(=O)[C@@H](Cc1cn(C(=O)OC)c2ccccc12)NC(=O)[C@H](CC(C)(C)C)NC(=O)N1[C@H](C)CCC[C@@H]1C)C(=O)O` [BQ-788] gave a Kb ratio ([3]; Kb 10 min versus 120 min pre-incubation (fold increase in potency)) of 1.0, a Kb ([3]; read-out: Kb 10 min, 10 min antagonist pre-incubation, geometric mean n = 6) of 121 nM and a Kb ([3]; read-out: Kb 120 min, 120 min antagonist pre-incubation (steady state), geometric mean n = 6) of 117 nM. For the same compound, the Kb ([3]; read-out: Kb PASMC, Table 1, 120 min antagonist pre-incubation, from IC50 via Cheng-Prusoff, geometric mean n = 3–8) was 117 nM, the Kb (recombinant ETB receptor [4]) was 0.09 nM and the Kb (recombinant ETA receptor [5]) was 277 nM.
With `COC(c1ccccc1)(c1ccccc1)[C@H](Oc1nc(C)cc(C)n1)C(=O)O` [ambrisentan] the “mode of antagonism, IP1 accumulation” value ([6]; 20 min ET-1 stimulation) was “surmountable”, the “mode of antagonism, IP1 accumulation” value ([6]; 90 min ET-1 stimulation) was “surmountable antagonism” and the “receptor occupancy half-life (ROt1/2)” value [7] was 40 s. It also gave a Kb [8, 14] of 1.1 nM, a Kb [8, 15] of 1.6 nM and a Kb [2, 12] of 0.11 nM. For the same compound, the Kb [2, 16] was 0.12 nM, the “proportion of receptors dissociated from within the first 30 seconds” value [9] was ~30% and the ROt1/2 [9] was < 1 min. The “proportion of ET-1-induced signal with surmountable mode of antagonism” value (“proportion of ET-1-induced signal” below) [9] was ~30%, the Ki [10, 17] was 0.27 nM and the Ki [10, 18] was 0.14 nM.
In the case of `COc1ccccc1Oc1c(NS(=O)(=O)c2ccc(C(C)(C)C)cc2)nc(-c2ncccn2)nc1OCCO` [bosentan], the “mode of antagonism, IP1 accumulation” value ([6]; 20 min ET-1 stimulation) is reported as “surmountable”, the “mode of antagonism, IP1 accumulation” value ([6]; 90 min ET-1 stimulation) is reported as “surmountable antagonism” and the “proportion of receptors dissociated from within the first 30 seconds” value [9] is reported as ~50%. The ROt1/2 [9] was < 1 min and the “proportion of ET-1-induced signal” value [9] was ~50%.
For `COC(=O)[C@H](c1ccccc1Cl)N1CCc2sccc2C1` [clopidogrel], the binding mode (P2Y12) is listed as “irreversible binding”.
For `CCCCc1nc(Cl)c(CO)n1Cc1ccc(-c2ccccc2-c2nn[nH]n2)cc1` [losartan], the “shorter ROt1/2 compared to candesartan and olmesartan” value (angiotensin II receptor) is listed as 15–25 fold.
For `CCCNS(=O)(=O)Nc1ncnc(OCCOc2ncc(Br)cn2)c1-c1ccc(Br)cc1` [macitentan], the “mode of antagonism, IP1 accumulation” value ([6]; 20 min ET-1 stimulation) was “insurmountable”, the “mode of antagonism, IP1 accumulation” value ([6]; 20 min ET-1 stimulation, listed as Macitentan) was “insurmountable antagonism” and the “mode of antagonism, IP1 accumulation” value ([6]; 90 min ET-1 stimulation) was “surmountable antagonism”. For the same compound, the “increase in ROt1/2 compared to ambrisentan and bosentan” value [7] was ~15 fold, the “receptor occupancy half-life (ROt1/2)” value [7] was 1020 s and the “loss in potency after washout” value ([7]; over 60 min after washout) was 13 fold. The Kb [8, 14] was 0.74 nM, the Kb [8, 15] was 1.4 nM and the Kb [2, 12] was 0.86 nM. The Kb [2, 16] was 0.14 nM, the “mode of antagonism, second sustained phase of calcium elevation” value ([9]; AUC 3–23 min after ET-1) was “insurmountable” and the “proportion of ET-1-induced signal” value [9] was “no surmountable behavior”. For the same compound, the Ki [10, 17] was 0.17 nM and the Ki [10, 18] was 0.093 nM.
Work on `Cc1cc2c(cc1CC(=O)c1sccc1S(=O)(=O)Nc1onc(C)c1Cl)OCO2` [sitaxentan] yielded a Kb (recombinant ETA receptor [1]) of 20 nM, a Kb [2, 12] of 2.9 nM and a Kb [2, 16] of 4.2 nM. The Kb [2, 13] was 4.2 nM and the Kb (recombinant ETB receptor [11]) was 4.47 µM.
Work on `COc1ccccc1Oc1c(NS(=O)(=O)c2ccc(C(C)C)cn2)nc(-c2ccnc(-c3nnn[nH]3)c2)nc1OCCO` [tezosentan] yielded a Kb (recombinant ETA receptor [1]) of 0.26 nM, a Kb [2, 12] of 0.042 nM and a Kb [2, 16] of 0.01 nM. The Kb [2, 13] was 0.01 nM and the Kb (recombinant ETB receptor [11]) was 0.0005 µM.
For `COc1nc(C)cnc1NS(=O)(=O)c1cccnc1-c1ccc(-c2nnco2)cc1` [zibotentan], the Kb (recombinant ETB receptor [11]) was 4.39 µM.
